The record followed here is patent US10265322B2, “Use of PAR-1 antagonists for preventing and/or treating pelvi-perineal functional pathological conditions” (PIERRE FABRE MEDICAMENT, priority 2013, dated 2019).

Series [1] concerns PAR. The series is described as follows: trypsin-induced contraction of rat-isolated bladder strips, naive animals. The settings on record: for effect on trypsin-induced bladder contraction at the other concentrations: other concentrations tested; for amplitude of bladder contraction: trypsin 3000 BAEE U/mL; for reduction in bladder contraction: trypsin. An excerpt: (§1) Purpose of the experiment: Evaluate the role of 3-(2-Chloro-phenyl)-1-[4-(4-fluoro-benzyl)-piperazin-1-yl]-propenone on the amplitude of bladder contraction induced by trypsin and TFLLR. The experiment was led in parallel on naïve bladders and on bladders subjected to inflammation procedure. The effect of the compound of the invention was compared with that of a reference PAR1 antagonist: compound SCH203099, (Ahn et al. Biochem. Pharmacol. 60(10:1425-1434, 2000).
(§2) In naïve rats (no administration of cyclophosphamide) or 24 hours after administration of cyclophosphamide, the animals were anaesthetised with pentobarbital (60 mg/kg) and euthanized. The bladder was rapidly taken and placed in modified Krebs-Henseleit oxygenated solution having the following composition (mM): NaCl 114; KCl 4.7; CaCl2 2.5; MgSO4 1.2; KH2PO4 1.2; NaHCO3 25 and glucose 11.7 (pH 7.4 with 95% O2 and 5% CO2). The bladder was cleaned of conjunctive tissue, weighed, the distal and proximal portions removed and the bladder cut in longitudinal direction into two equal strips. These strips were attached with silk thread and immersed in a 10 mL isolated organ bath (EMKA Technologies) containing the Krebs-Henseleit oxygenated solution with 95%:5% mixture of O2/CO2 held at 37° C. The bladder strips were connected via the silk thread to isometric sensors (IT50 model, EMKA Technologies) connected to amplifiers (EMKA Technologies). Contractile responses were recorded using IOX2® software (EMKA Technologies).
(§3) For an initial stabilisation period of at least 90 minutes, rinsing operations were carried out every 15 minutes and the tensioning of each bladder strip readjusted to 1.0 g. The strips were then exposed to 50 mM KCl to verify their viability. If the contraction amplitude of the strips was less than 1.0 g, the tissues were discarded and not included in the experiment. After a second stabilisation and washing period of at least 45 minutes, a concentration of the compound of the invention or of the reference product (SCH203099) or of the vehicle was incubated for 30 minutes. A concentration-accumulative response curve to the selective agonist PAR1, to TFLLR (0.1 μM to 0.1 mM) or to trypsin (10 U to 10,000 BAEE U/mL) was plotted.
(§4) These experiments were conducted on naive bladders. The protocol followed was the same as the protocol described in Example 1.

The test system of series [2] is PAR. In words: trypsin-induced contraction of rat-isolated bladder strips, inflammation conditions (cyclophosphamide). The settings on record: for amplitude of bladder contraction / reduction in bladder contraction: inflamed rat bladder; for amplitude of bladder contraction: trypsin 3000 BAEE U/mL; for reduction in bladder contraction: trypsin.
From the text: as §1
(§5) To induce inflammation of the bladder, cyclophosphamide was bilaterally injected into the rats (Female Wistar Han rats weighing 250 to 275 g on the day of the experiment, obtained from Charles River laboratory, France) via intraperitoneal route at a dose of 150 mg/kg in a final volume of 5 mL/kg.
as §2, §3

In series [3] the target is T1, PAR1 (Rattus norvegicus, UniProt P26824).
T1 construct: the bladder cut in longitudinal direction into two equal strips; from tissue; host or cells: isolated bladder strips of female Wistar Han rats (naive or 24 h after cyclophosphamide)
T1 sequence (P26824 22-432): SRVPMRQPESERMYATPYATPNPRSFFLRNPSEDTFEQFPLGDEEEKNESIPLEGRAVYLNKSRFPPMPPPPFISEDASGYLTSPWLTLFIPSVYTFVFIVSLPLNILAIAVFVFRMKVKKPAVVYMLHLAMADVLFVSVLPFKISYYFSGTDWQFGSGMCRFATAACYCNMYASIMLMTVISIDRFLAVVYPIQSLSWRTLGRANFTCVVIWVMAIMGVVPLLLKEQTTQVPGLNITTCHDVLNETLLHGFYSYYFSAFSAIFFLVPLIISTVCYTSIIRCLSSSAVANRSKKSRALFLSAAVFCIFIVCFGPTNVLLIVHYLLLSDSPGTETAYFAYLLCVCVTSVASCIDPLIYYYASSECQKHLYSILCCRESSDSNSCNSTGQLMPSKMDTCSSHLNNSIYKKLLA
The series is described as follows: TFLLR-induced contraction of rat-isolated bladder strips, naive animals.
From the text: as §1, §2, §3, §4

Series [4] deals with T1, PAR1. The series is described as follows: TFLLR-induced contraction of rat-isolated bladder strips, inflammation conditions (cyclophosphamide). Particulars: inflamed rat bladder, 100 μM TFLLR.
From the text: as §1, §5, §2, §3

Series [5] can be described thus: solubility of the compound in the organ bath experiment. The class given is physicochemical. Particulars: noted at 10 μM and 30 μM in organ bath.

Counter-ions that a name gives are not always drawn.

On to `CNc1nc(NC2CC2)nc2ccc3c(ccn3Cc3ccc(C(C)C)cc3)c12` [SCH203099], for which the “effect on trypsin-induced bladder contraction versus vehicle” value with PAR [1] (compound 10 μM) is given as “divided by two”. Further, the “effect on trypsin-induced bladder contraction at the other concentrations” value in the series on PAR [1] was “nothing was observed”. The “amplitude of bladder contraction” value came out at 0.48 ± 0.11 g with PAR [1] (compound 10 μM); 2.05 ± 0.53 g in the series with PAR [2] (compound 3 μM); 1.77 ± 0.38 g with PAR [2] (compound 10 μM); 1.04 ± 0.16 g in the series with PAR [2] (compound 30 μM); 0.26 ± 0.07 g at PAR1 [3] (100 μM TFLLR, compound 10 μM); 0.73 ± 0.10 g on PAR1 [4] (compound 10 μM). Further, the “amplitude of bladder contraction” value on PAR1 [4] (compound 30 μM) came to 0.49 ± 0.08 g. In addition, the “reduction in bladder contraction” value in the series with PAR [2] (compound 3 μM) was 25%; in the series on PAR [2] (compound 10 μM) it was 35%; in the series on PAR [2] (compound 30 μM), 60%; on PAR1 [4] (compound 3 μM (no conclusive effect)), 10%; at PAR1 [4] (compound 10 μM), 35%. For the same molecule, the “effect on TFLLR-induced bladder contraction versus vehicle” value on PAR1 [3] (compound 10 μM) is “divided by two”. At PAR1 [3] (other concentrations tested), the “effect on TFLLR-induced bladder contraction at the other concentrations” value is “nothing was observed”. Besides, the “reduction in bladder contraction / contractile response” value at PAR1 [4] (compound 30 μM) was 55%.
In the case of `CCOc1cc2c(c(F)c1OCC)C(=N)N(CC(=O)c1cc(N3CCOCC3)c(OC)c(C(C)(C)C)c1)C2` [atopaxar, [(1-(3-tert-butyl-4-methoxy-5-morpholinophenyl)-2-(5,6-diethoxy-fluoro-1-imino-1,3-dihydro-2H-isoindol-2yl)ethanone hydrobromide], the “effect on trypsin-induced bladder contraction versus vehicle” value is “slight reduction” in the series on PAR [1] (compound 1 μM) and “completely abolishes” in the series on PAR [1] (compound 30 μM). In addition, the “amplitude of bladder contraction” value with PAR [1] (compound 1 μM) was 1.02 ± 0.20 g; with PAR [1] (compound 3 μM) it was 0.74 ± 0.19 g; with PAR [1] (compound 10 μM) it was 0.36 ± 0.15 g; on PAR1 [3] (100 μM TFLLR, compound 10 nM), 0.21 ± 0.03 g; on PAR1 [3] (100 μM TFLLR, compound 1 μM) it was 0.08 ± 0.03 g. Besides, the “reduction in bladder contraction” value with PAR [1] (compound 3 μM) is reported as 38%; with PAR [1] (compound 10 μM), 70%; on PAR1 [3] (100 μM TFLLR, compound 10 nM), “more than 50%”. Also, the “decrease of bladder contraction” value on PAR1 [3] (100 μM TFLLR, compound 1 μM) is reported as “more than 80%”.
As for `O=C(/C=C/c1ccccc1Cl)N1CCN(Cc2ccc(F)cc2)CC1` [compound of the invention, 3-(2-Chloro-phenyl)-1-[4-(4-fluoro-benzyl)-piperazin-1-yl]-propenone], the “effect on trypsin-induced bladder contraction versus vehicle” value in the series with PAR [1] (compound 30 μM) is “divided by two”. Further, the “effect on trypsin-induced bladder contraction at the other concentrations” value with PAR [1] is “nothing was observed”. Further, the “amplitude of bladder contraction” value in the series on PAR [1] (compound 30 μM) stood at 0.55 ± 0.24 g; in the series with PAR [2] (compound 10 μM), 1.76 ± 0.30 g; in the series with PAR [2] (compound 30 μM), 0.92 ± 0.17 g; on PAR1 [3] (100 μM TFLLR, compound 3 μM) it was 0.33 ± 0.05 g; at PAR1 [3] (100 μM TFLLR, compound 10 μM), 0.18 ± 0.04 g; at PAR1 [3] (100 μM TFLLR, compound 30 μM), 0.00 ± 0.04 g. Further, the “amplitude of bladder contraction” value turned out to be 0.45 ± 0.13 g on PAR1 [4] (compound 10 μM) and 0.11 ± 0.04 g on PAR1 [4] (compound 30 μM). In addition, in the series with PAR [2] (inflamed rat bladder (cyclophosphamide), compound up to 3 μM), the “effect on trypsin-induced bladder contraction” value was “inactive”. The “reduction in bladder contraction” value with PAR [2] (compound 10 μM) was 35%; in the series on PAR [2] (compound 30 μM), “about 70%”; at PAR1 [3] (100 μM TFLLR, compound 3 μM), 45%; on PAR1 [3] (100 μM TFLLR, compound 10 μM), 70%; on PAR1 [4] (compound 10 μM) it was 60%; on PAR1 [4] (compound up to 3 μM (no conclusive effect)) it was 10%. Also, the “effect on TFLLR-induced bladder contraction” value on PAR1 [3] (compound 1 μM) was “inactive”; at PAR1 [3] (compound 30 μM), “completely abolished”. In addition, the “reduction in bladder contraction / contractile response” value at PAR1 [4] (compound 30 μM) is recorded as 90%.
On to `CCOC(=O)N[C@@H]1CC[C@@H]2[C@@H](C1)C[C@H]1C(=O)O[C@H](C)[C@H]1[C@H]2/C=C/c1ccc(-c2cccc(F)c2)cn1` [vorapaxar, ethyl N-[(3R,3aS,4S,4aR,7R,8aR,9aR)-4-[(E)-2-[5-(3-fluorophenyl)-2-pyridyl]vinyl]-3-methyl-1-oxo-3a,4,4a,5,6,7,8,8a,9,9a-decahydro-3H-benzo[f]isobenzofuran-7-yl]carbamate], for which the “effect on trypsin-induced bladder contraction versus vehicle” value in the series on PAR [1] (compound 10 μM) is on record as “lesser efficacy”. The “amplitude of bladder contraction” value in the series on PAR [1] (compound 3 μM) stood at 0.79 ± 0.14 g; on PAR1 [3] (100 μM TFLLR, compound 3 nM), 0.31 ± 0.12 g; on PAR1 [3] (100 μM TFLLR, compound 10 nM), 0.14 ± 0.02 g; at PAR1 [3] (100 μM TFLLR, compound 1 μM), 0.04 ± 0.03 g. In addition, the “reduction in bladder contraction” value at PAR1 [3] (100 μM TFLLR, compound 3 nM) is reported as approximately 50%; on PAR1 [3] (100 μM TFLLR, compound 10 nM), 75%. In addition, at PAR1 [3] (compound from 1 μM), the “effect on TFLLR-induced bladder contraction” value is listed as “completely abolishes”. Also, in series [5], the “solubility” value is recorded as “low solubility”.
